According to US6339042B1, “Herbicidal N-cyclohexadienyl heteroaryloxyacetamides” (American Cyanamid Co., priority 1999, dated 2002):

Legend:
Conditions in all cases: three weeks after treatment
Amaranthus tuberculatus [1] = assay: Pre-emergence herbicidal evaluation, AMATA; assay type: in vivo
From the text: (§1) The treated pots are then placed on greenhouse benches, watered and cared for in accordance with conventional greenhouse procedures.

Galium aparine [2] = assay: Pre-emergence herbicidal evaluation, GALAP; assay type: in vivo
From the text: as §1

Alopecurus myosuroides [3] = assay: Pre-emergence herbicidal evaluation, ALOMY; assay type: in vivo
From the text: as §1

Apera spica venti [4] = assay: Pre-emergence herbicidal evaluation, APESV; assay type: in vivo
From the text: as §1

Echinochloa crus-galli [5] = assay: Pre-emergence herbicidal evaluation, ECHCG; assay type: in vivo
From the text: as §1

Setaria viridis [6] = assay: Pre-emergence herbicidal evaluation, SETVI; assay type: in vivo
From the text: as §1

Lolium perenne [7] = assay: Pre-emergence herbicidal evaluation, LOLPE; assay type: in vivo
From the text: as §1

Triticum aestivum [8] = assay: Pre-emergence herbicidal evaluation, TRZAW; assay type: in vivo
From the text: as §1

Hordeum vulgare [9] = assay: Pre-emergence herbicidal evaluation, HORVW; assay type: in vivo
From the text: as §1

Zea mays [10] = assay: Pre-emergence herbicidal evaluation, ZEAMX; assay type: in vivo
From the text: as §1

Glycine max [11] = assay: Pre-emergence herbicidal evaluation, GLXMA; assay type: in vivo
From the text: as §1

Oryza sativum [12] = assay: Pre-emergence herbicidal evaluation, ORYSA; assay type: in vivo
From the text: as §1

Amaranthus tuberculatus [13] = assay: Post-emergence herbicidal evaluation, AMATA; assay type: in vivo
Galium aparine [14] = assay: Post-emergence herbicidal evaluation, GALAP
Alopecurus myosuroides [15] = assay: Post-emergence herbicidal evaluation, ALOMY
Apera spica venti [16] = assay: Post-emergence herbicidal evaluation, APESV
Echinochloa crus-galli [17] = assay: Post-emergence herbicidal evaluation, ECHCG
Experimental: (§2) The compounds of the invention are tested for pre- and post-emergence herbicidal activity.
(§3) Each pot is examined three weeks after treatment and phytotoxicity is assessed according to the rating system set forth below.
(§4) These acetone solutions are diluted with water and the resulting formulations applied at dosage levels equivalent of about 0.4 to 0.1 kg per hectare of test compound per pot. After spraying the plants are placed on greenhouse benches and are cared for in the usual manner, commensurate with conventional greenhouse practices.

Setaria viridis [18] = assay: Post-emergence herbicidal evaluation, SETVI
Lolium perenne [19] = assay: Post-emergence herbicidal evaluation, LOLPE
Triticum aestivum [20] = assay: Post-emergence herbicidal evaluation, TRZAW
Hordeum vulgare [21] = assay: Post-emergence herbicidal evaluation, HORVW
Experimental: as §3, §4

Zea mays [22] = assay: Post-emergence herbicidal evaluation, ZEAMX
Glycine max [23] = assay: Post-emergence herbicidal evaluation, GLXMA
Oryza sativum [24] = assay: Post-emergence herbicidal evaluation, ORYSA
Experimental: as §2, §3, §4

Compound: CCN(C(=O)COc1nnc(C(F)(F)F)s1)C1=CC(C)(C)CC(C)=C1 [Example 1]
- phytotoxicity rating AMATA (Amaranthus tuberculatus [1]; 0.100 kg/ha): 0 (0 - No effect)
- phytotoxicity rating AMATA (Amaranthus tuberculatus [1]; 0.200 kg/ha): 3 (3 - Moderate effect)
- phytotoxicity rating AMATA (Amaranthus tuberculatus [1]; 0.400 kg/ha): 9 (9 - Complete kill)
- phytotoxicity rating AMATA (Amaranthus tuberculatus [1]; 0.800 kg/ha): 9 (9 - Complete kill)
- phytotoxicity rating GALAP (Galium aparine [2]; 0.100 kg/ha): 0 (0 - No effect)
- phytotoxicity rating GALAP (Galium aparine [2]; 0.200 kg/ha): 4 (4 - Injury)
- phytotoxicity rating GALAP (Galium aparine [2]; 0.400 kg/ha): 4 (4 - Injury)
- phytotoxicity rating GALAP (Galium aparine [2]; 0.800 kg/ha): 4 (4 - Injury)
- phytotoxicity rating ALOMY (Alopecurus myosuroides [3]; 0.100 kg/ha): 2 (2 - Slight effect)
- phytotoxicity rating ALOMY (Alopecurus myosuroides [3]; 0.200 kg/ha): 3 (3 - Moderate effect)
- phytotoxicity rating ALOMY (Alopecurus myosuroides [3]; 0.400 kg/ha): 9 (9 - Complete kill)
- phytotoxicity rating ALOMY (Alopecurus myosuroides [3]; 0.800 kg/ha): 7 (7 - Good herbicidal effect)
- phytotoxicity rating APESV (Apera spica venti [4]; 0.100 kg/ha): 6 (6 - Herbicidal effect)
- phytotoxicity rating APESV (Apera spica venti [4]; 0.200 kg/ha): 8 (8 - Approaching complete kill)
- phytotoxicity rating APESV (Apera spica venti [4]; 0.400 kg/ha): 9 (9 - Complete kill)
- phytotoxicity rating APESV (Apera spica venti [4]; 0.800 kg/ha): 9 (9 - Complete kill)
- phytotoxicity rating ECHCG (Echinochloa crus-galli [5]; 0.100 kg/ha): 4 (4 - Injury)
- phytotoxicity rating ECHCG (Echinochloa crus-galli [5]; 0.200 kg/ha): 8 (8 - Approaching complete kill)
- phytotoxicity rating ECHCG (Echinochloa crus-galli [5]; 0.400 kg/ha): 9 (9 - Complete kill)
- phytotoxicity rating ECHCG (Echinochloa crus-galli [5]; 0.800 kg/ha): 9 (9 - Complete kill)
- phytotoxicity rating SETVI (Setaria viridis [6]; 0.100 kg/ha): 4 (4 - Injury)
- phytotoxicity rating SETVI (Setaria viridis [6]; 0.200 kg/ha): 7 (7 - Good herbicidal effect)
- phytotoxicity rating SETVI (Setaria viridis [6]; 0.400 kg/ha): 8 (8 - Approaching complete kill)
- phytotoxicity rating SETVI (Setaria viridis [6]; 0.800 kg/ha): 8 (8 - Approaching complete kill)
- phytotoxicity rating LOLPE (Lolium perenne [7]; 0.100 kg/ha): 2 (2 - Slight effect)
- phytotoxicity rating LOLPE (Lolium perenne [7]; 0.200 kg/ha): 3 (3 - Moderate effect)
- phytotoxicity rating LOLPE (Lolium perenne [7]; 0.400 kg/ha): 9 (9 - Complete kill)
- phytotoxicity rating LOLPE (Lolium perenne [7]; 0.800 kg/ha): 9 (9 - Complete kill)
- phytotoxicity rating TRZAW (Triticum aestivum [8]; 0.100 kg/ha): 0 (0 - No effect)
- phytotoxicity rating TRZAW (Triticum aestivum [8]; 0.200 kg/ha): 0 (0 - No effect)
- phytotoxicity rating TRZAW (Triticum aestivum [8]; 0.400 kg/ha): 2 (2 - Slight effect)
- phytotoxicity rating TRZAW (Triticum aestivum [8]; 0.800 kg/ha): 4 (4 - Injury)
- phytotoxicity rating HORVW (Hordeum vulgare [9]; 0.100 kg/ha): 2 (2 - Slight effect)
- phytotoxicity rating HORVW (Hordeum vulgare [9]; 0.200 kg/ha): 2 (2 - Slight effect)
- phytotoxicity rating HORVW (Hordeum vulgare [9]; 0.400 kg/ha): 4 (4 - Injury)
- phytotoxicity rating HORVW (Hordeum vulgare [9]; 0.800 kg/ha): 4 (4 - Injury)
- phytotoxicity rating ZEAMX (Zea mays [10]; 0.100 kg/ha): 0 (0 - No effect)
- phytotoxicity rating ZEAMX (Zea mays [10]; 0.200 kg/ha): 0 (0 - No effect)
- phytotoxicity rating ZEAMX (Zea mays [10]; 0.400 kg/ha): 2 (2 - Slight effect)
- phytotoxicity rating ZEAMX (Zea mays [10]; 0.800 kg/ha): 4 (4 - Injury)
- phytotoxicity rating GLXMA (Glycine max [11]; 0.100 kg/ha): 0 (0 - No effect)
- phytotoxicity rating GLXMA (Glycine max [11]; 0.200 kg/ha): 0 (0 - No effect)
- phytotoxicity rating GLXMA (Glycine max [11]; 0.400 kg/ha): 2 (2 - Slight effect)
- phytotoxicity rating GLXMA (Glycine max [11]; 0.800 kg/ha): 2 (2 - Slight effect)
- phytotoxicity rating ORYSA (Oryza sativum [12]; 0.100 kg/ha): 0 (0 - No effect)
- phytotoxicity rating ORYSA (Oryza sativum [12]; 0.200 kg/ha): 0 (0 - No effect)
- phytotoxicity rating ORYSA (Oryza sativum [12]; 0.400 kg/ha): 3 (3 - Moderate effect)
- phytotoxicity rating AMATA (Amaranthus tuberculatus [13]; 0.100 kg/ha): 0 (0 - No effect)
- phytotoxicity rating AMATA (Amaranthus tuberculatus [13]; 0.200 kg/ha): 0 (0 - No effect)
- phytotoxicity rating AMATA (Amaranthus tuberculatus [13]; 0.400 kg/ha): 0 (0 - No effect)
- phytotoxicity rating GALAP (Galium aparine [14]; 0.100 kg/ha): 0 (0 - No effect)
- phytotoxicity rating GALAP (Galium aparine [14]; 0.200 kg/ha): 0 (0 - No effect)
- phytotoxicity rating GALAP (Galium aparine [14]; 0.400 kg/ha): 1 (1 - Trace effect)
- phytotoxicity rating ALOMY (Alopecurus myosuroides [15]; 0.100 kg/ha): 6 (6 - Herbicidal effect)
- phytotoxicity rating ALOMY (Alopecurus myosuroides [15]; 0.200 kg/ha): 6 (6 - Herbicidal effect)
- phytotoxicity rating ALOMY (Alopecurus myosuroides [15]; 0.400 kg/ha): 8 (8 - Approaching complete kill)
- phytotoxicity rating APESV (Apera spica venti [16]; 0.100 kg/ha): 5 (5 - Definite injury)
- phytotoxicity rating APESV (Apera spica venti [16]; 0.200 kg/ha): 8 (8 - Approaching complete kill)
- phytotoxicity rating APESV (Apera spica venti [16]; 0.400 kg/ha): 8 (8 - Approaching complete kill)
- phytotoxicity rating ECHCG (Echinochloa crus-galli [17]; 0.100 kg/ha): 2 (2 - Slight effect)
- phytotoxicity rating ECHCG (Echinochloa crus-galli [17]; 0.200 kg/ha): 4 (4 - Injury)
- phytotoxicity rating ECHCG (Echinochloa crus-galli [17]; 0.400 kg/ha): 7 (7 - Good herbicidal effect)
- phytotoxicity rating SETVI (Setaria viridis [18]; 0.100 kg/ha): 0 (0 - No effect)
- phytotoxicity rating SETVI (Setaria viridis [18]; 0.200 kg/ha): 2 (2 - Slight effect)
- phytotoxicity rating SETVI (Setaria viridis [18]; 0.400 kg/ha): 3 (3 - Moderate effect)
- phytotoxicity rating LOLPE (Lolium perenne [19]; 0.100 kg/ha): 6 (6 - Herbicidal effect)
- phytotoxicity rating LOLPE (Lolium perenne [19]; 0.200 kg/ha): 8 (8 - Approaching complete kill)
- phytotoxicity rating LOLPE (Lolium perenne [19]; 0.400 kg/ha): 8 (8 - Approaching complete kill)
- phytotoxicity rating TRZAW (Triticum aestivum [20]; 0.100 kg/ha): 0 (0 - No effect)
- phytotoxicity rating TRZAW (Triticum aestivum [20]; 0.200 kg/ha): 0 (0 - No effect)
- phytotoxicity rating TRZAW (Triticum aestivum [20]; 0.400 kg/ha): 1 (1 - Trace effect)
- phytotoxicity rating HORVW (Hordeum vulgare [21]; 0.100 kg/ha): 0 (0 - No effect)
- phytotoxicity rating HORVW (Hordeum vulgare [21]; 0.200 kg/ha): 0 (0 - No effect)
- phytotoxicity rating HORVW (Hordeum vulgare [21]; 0.400 kg/ha): 0 (0 - No effect)
- phytotoxicity rating ZEAMX (Zea mays [22]; 0.100 kg/ha): 0 (0 - No effect)
- phytotoxicity rating ZEAMX (Zea mays [22]; 0.200 kg/ha): 0 (0 - No effect)
- phytotoxicity rating ZEAMX (Zea mays [22]; 0.400 kg/ha): 0 (0 - No effect)
- phytotoxicity rating GLXMA (Glycine max [23]; 0.100 kg/ha): 4 (4 - Injury)
- phytotoxicity rating GLXMA (Glycine max [23]; 0.200 kg/ha): 5 (5 - Definite injury)
- phytotoxicity rating GLXMA (Glycine max [23]; 0.400 kg/ha): 4 (4 - Injury)
- phytotoxicity rating ORYSA (Oryza sativum [24]; 0.100 kg/ha): 0 (0 - No effect)
- phytotoxicity rating ORYSA (Oryza sativum [24]; 0.200 kg/ha): 0 (0 - No effect)
- phytotoxicity rating ORYSA (Oryza sativum [24]; 0.400 kg/ha): 3 (3 - Moderate effect)
